In patent US9139551B2, “Preparation of a new class of water-soluble ammonium 2,3-dihydroxy-5-((2R,3R)-3,5,7-trihydroxy-4-oxochroman-2-yl) phenolates and their biological activity of alcohol elimination” (priority 2014, dated 2015):
Values after ≈ are worked out from the molar mass of the structure shown. Values joined by “and” are separate entries in the source; they are usually repeats but may differ in a detail not shown here. Equal entries are not always repeated. Where two headings read alike, the source gives them in different places. Marks after values point to notes of the source that are not given here.

What was measured:
mice [1] = test: Acute toxicity, intragastric administration (maximum tolerated dose); conditions: for average body weight of mice / dietary change-by-day of mice: PDHM MTD 3750 mg/kg i.g.
[2] = as above; conditions: both, mouse, in vivo, po, 1250 mg/kg
Balb/C mice [3] = test: Climbing net test; format: in vivo; conditions: 2 mg/kg gavage 30 min before alcohol; vertical metal net
Method: Climbing Net Test • Groups design and treatment before experiment are as the same as that in deintoxication test. […] 30 minutes later all mice administrated alcohol (liquid Erguotou, ethonol concentration was diluted to 30%) 0.2 mL/kg BW and placed on a vertical metal net and measured the time when mice climbed on net.

Balb/C mice [4] = test: Anti-alcoholism test (agent 30 min after alcohol); format: in vivo
Description: Anti-Alcoholism Tests • Groups design and treatment before experiment are as the same as that in Deintoxication test. […]

mice [5] = test: Acute toxicity, intraperitoneal administration (mortality, LD50, body weight, dietary); format: in vivo; conditions: for Dead number: 20 mice; for Dead number / mortality: 7 days
Method: (§1) Acute Toxicity • Compounds PDHM/TDHM.
(§2) 140 mice were divided into 7 groups (n=20), each group include 10 males and 10 females, they were treated with different concentrations of dosages and observed for 7 days. Specific experimental groups and experimental results were noted below. Note: Section 1-6 group compound are PDHM groups, and group 7 is a negative control group.
(§3) 140 mice were divided into 7 groups (n=20), each group include 10 males and 10 females, they were treated with different concentrations of dosage and observed for 7 days. Note: Section 1-6 group compound are PDHM groups, and group 7 is a negative control group.

[6] = as above; format: in vivo, mice; conditions: both sexes, mouse, in vivo, ip, mice, i.p., observed 7 days
Method: as §1, §2, §3

Balb/C mice [7] = test: Deintoxication test (agent 30 min before alcohol)
physchem = conditions: water
Balb/C mice [8] = test: Plasma EtOH concentration assay; format: in vivo; conditions: intragastric 2 mg/kg
Method: Plasma EtOH Concentration Assay. • Blood samples from the tail vein of mice at different time points (0, 15, 30, 45, 60, 90, 120, 240, 480 and 720 minutes) after EtOH (30% ethanol, 0.2 ml/kg bw) or TDHM (2 mg/kg bw), PDHM (2 mg/kg bw) or DHM (2 mg/kg bw) gavage were collected for plasma EtOH concentrations (plasma [EtOH]) assays. (“BW” or “bw”: body weight) • Briefly, the Balb/C mice were put into a restraint tube and the tail was warmed at 37° C. The tail vein at the tip of the tail was punched with a sharp blade. Approximately 0.2 ml venous blood was dropped to a capillary blood collection tube containing lithium heparin (Ram Scientific). Blood samples were centrifuged at 2500 rpm for 20 min. The supernatant was collected and stored at −80° C. until assay. The EtOH content of each blood sample was measured in duplicate along with EtOH standards using the alcohol oxidase reaction procedures (EnzyChrom™ Ethanol Acid Assay Kit, ECET-100) (Liang et al., 2007). The sample preparations were the same as described above.

[9] = 2 mg/kg gavage 30 min after 30% ethanol
[10] = 2 mg/kg gavage 30 min after 30% ethanol, 20 mice
[11] = 2 mg/kg gavage 30 min before 30% ethanol
[12] = agents intragastric 30 minutes before drinking

O=C1c2c(O)cc(O)cc2O[C@H](c2cc(O)c(O)c(O)c2)[C@H]1O [PDHM, piperidinium 2,3-dihydroxy-5-((2R,3R)-3,5,7-trihydroxy-4-oxochroman-2-yl)phenolate]
average body weight of mice (mice [1]; D1): 1.97 g
dietary change-by-day of mice (mice [1]; D1): 5.98 g
average body weight of mice (mice [1]; D2): 3.47 g
dietary change-by-day of mice (mice [1]; D2): 6.1 g
average body weight of mice (mice [1]; D3): 4.77 g
dietary change-by-day of mice (mice [1]; D3): 6.03 g
average body weight of mice (mice [1]; D4): 6.37 g
dietary change-by-day of mice (mice [1]; D4): 6.14 g
average body weight of mice (mice [1]; D5): 7.38 g
dietary change-by-day of mice (mice [1]; D5): 6.48 g
average body weight of mice (mice [1]; D6): 8.41 g
dietary change-by-day of mice (mice [1]; D6): 6.32 g
average body weight of mice (mice [1]; D7): 9.67 g
dietary change-by-day of mice (mice [1]; D7): 6.57 g
pathological examination of stomach, liver, kidney (mice [1]; mice at MTD, end of 7-day observation): no obvious degeneration, necrosis and other changes
pathology changes in livers, kidneys, hearts and lungs (mice [1]; mice of the toxicity experiments): No degeneration and necrosis pathology changes
deaths in preliminary experiments (mice [1]; mice, different doses, gavage once, observed 7 days): no deaths occurred
deaths during the observation period at MTD (mice [1]; mice, gavage three times a day, 7 days): No deaths
MTD at 7 days [2]: 3750 mg/kg
climbing (Balb/C mice [3]): 392.25 ± 76.67^#& min
Sleep time M ± SD (Balb/C mice [4]; [9]): 107.71 ± 36.87*^& min
Tolerance time M ± SD (Balb/C mice [4]; [9]): 22.14 ± 15 min
Dead number (Balb/C mice [4]; [10]): 2 piece
Rate of drunk (Balb/C mice [4]; [10]): 10%
sleep time in drunk mice comparing with DHM (Balb/C mice [4]; 2 mg/kg gavage 30 min after alcohol): remarkably shorten
Dead number (mice [5]; PDHM 853.27 mg/kg i.p.): 0
mortality (mice [5]; PDHM 853.27 mg/kg i.p.): 0%
average dietary of mice (mice [5]; PDHM 853.27 mg/kg i.p., D1): 3.79 g
average dietary of mice (mice [5]; PDHM 853.27 mg/kg i.p., D2): 4.58 g
average dietary of mice (mice [5]; PDHM 853.27 mg/kg i.p., D3): 3.6 g
average dietary of mice (mice [5]; PDHM 853.27 mg/kg i.p., D4): 4.92 g
average dietary of mice (mice [5]; PDHM 853.27 mg/kg i.p., D5): 5.76 g
average dietary of mice (mice [5]; PDHM 853.27 mg/kg i.p., D6): 5.31 g
average dietary of mice (mice [5]; PDHM 853.27 mg/kg i.p., D7): 5.83 g
Dead number (mice [5]; PDHM 874.6 mg/kg i.p.): 6
mortality (mice [5]; PDHM 874.6 mg/kg i.p.): 30%
average dietary of mice (mice [5]; PDHM 874.6 mg/kg i.p., D1): 3.91 g
average dietary of mice (mice [5]; PDHM 874.6 mg/kg i.p., D2): 4.73 g
average dietary of mice (mice [5]; PDHM 874.6 mg/kg i.p., D3): 5.81 g
average dietary of mice (mice [5]; PDHM 874.6 mg/kg i.p., D4): 5.43 g
average dietary of mice (mice [5]; PDHM 874.6 mg/kg i.p., D5): 4.97 g
average dietary of mice (mice [5]; PDHM 874.6 mg/kg i.p., D6): 5.88 g
average dietary of mice (mice [5]; PDHM 874.6 mg/kg i.p., D7): 5.72 g
Dead number (mice [5]; PDHM 896.47 mg/kg i.p.): 10
mortality (mice [5]; PDHM 896.47 mg/kg i.p.): 50%
average dietary of mice (mice [5]; PDHM 896.47 mg/kg i.p., D1): 3.35 g
average dietary of mice (mice [5]; PDHM 896.47 mg/kg i.p., D2): 4.92 g
average dietary of mice (mice [5]; PDHM 896.47 mg/kg i.p., D3): 5.78 g
average dietary of mice (mice [5]; PDHM 896.47 mg/kg i.p., D4): 6.04 g
average dietary of mice (mice [5]; PDHM 896.47 mg/kg i.p., D5): 5.72 g
average dietary of mice (mice [5]; PDHM 896.47 mg/kg i.p., D6): 5.34 g
average dietary of mice (mice [5]; PDHM 896.47 mg/kg i.p., D7): 5.65 g
Dead number (mice [5]; PDHM 918.88 mg/kg i.p.): 12
mortality (mice [5]; PDHM 918.88 mg/kg i.p.): 60%
average dietary of mice (mice [5]; PDHM 918.88 mg/kg i.p., D1): 4.21 g
average dietary of mice (mice [5]; PDHM 918.88 mg/kg i.p., D2): 4.79 g
average dietary of mice (mice [5]; PDHM 918.88 mg/kg i.p., D3): 5.21 g
average dietary of mice (mice [5]; PDHM 918.88 mg/kg i.p., D4): 6.08 g
average dietary of mice (mice [5]; PDHM 918.88 mg/kg i.p., D5): 5.83 g
average dietary of mice (mice [5]; PDHM 918.88 mg/kg i.p., D6): 6.24 g
average dietary of mice (mice [5]; PDHM 918.88 mg/kg i.p., D7): 5.13 g
Dead number (mice [5]; PDHM 941.85 mg/kg i.p.): 18
mortality (mice [5]; PDHM 941.85 mg/kg i.p.): 90%
average dietary of mice (mice [5]; PDHM 941.85 mg/kg i.p., D1): 4.76 g
average dietary of mice (mice [5]; PDHM 941.85 mg/kg i.p., D2): 3.92 g
average dietary of mice (mice [5]; PDHM 941.85 mg/kg i.p., D3): 4.66 g
average dietary of mice (mice [5]; PDHM 941.85 mg/kg i.p., D4): 5.82 g
average dietary of mice (mice [5]; PDHM 941.85 mg/kg i.p., D5): 6.15 g
average dietary of mice (mice [5]; PDHM 941.85 mg/kg i.p., D6): 5.79 g
average dietary of mice (mice [5]; PDHM 941.85 mg/kg i.p., D7): 5.43 g
Dead number (mice [5]; PDHM 965.4 mg/kg i.p.): 20
mortality (mice [5]; PDHM 965.4 mg/kg i.p.): 100%
average dietary of mice (mice [5]; PDHM 965.4 mg/kg i.p., D1): 0 g
average dietary of mice (mice [5]; PDHM 965.4 mg/kg i.p., D2): 0 g
average dietary of mice (mice [5]; PDHM 965.4 mg/kg i.p., D3): 0 g
average dietary of mice (mice [5]; PDHM 965.4 mg/kg i.p., D4): 0 g
average dietary of mice (mice [5]; PDHM 965.4 mg/kg i.p., D5): 0 g
average dietary of mice (mice [5]; PDHM 965.4 mg/kg i.p., D6): 0 g
average dietary of mice (mice [5]; PDHM 965.4 mg/kg i.p., D7): 0 g
effect on dietary and body weight (mice [5]; mice): no significant effect
LD50 (mice [5]; mice, i.p., observed 7 days): 888.79 to 914.58 mg/kg and 748.69 mg/kg
LD50 at 7 days ([6]; read-out: 95% confidence limit of LD50): 743 to 755 mg/kg
LD50 at 7 days ([6]; read-out: LD50): 902 mg/kg
Sleep time M ± SD (Balb/C mice [7]; [11]): 125.33 ± 33.75 min
Tolerance time M ± SD (Balb/C mice [7]; [11]): 25.43 ± 10.80 min
Dead number (Balb/C mice [7]; 2 mg/kg gavage 30 min before 30% ethanol, 20 mice): 2 piece
holding time comparing with DHM (Balb/C mice [7]; [12]): shorten
tolerance time of righting reflex disappearing comparing with DHM (Balb/C mice [7]; [12]): obviously prolonged
solubility (physchem): 5000 µg/mL (≈ 15.6 mM)
blood alcohol concentration vs control group treated with saline (Balb/C mice [8]): significantly decreased
reduction of blood alcohol concentration compared with DHM (Balb/C mice [8]): better beneficial effect than DHM
